Experiment: Screening stability of different colorants with ORP by UV-Vis
Details: 300 ppm colorant; for Colour / UV-vis stability of colorant in ORP solution: 25° C., vs control water solution

COc1cc(S(=O)(=O)[O-])c(C)cc1N=Nc1c(O)ccc2cc(S(=O)(=O)[O-])ccc12.[Na+].[Na+] [Food dye FD&C red 40]
UV-visible absorbance of the colored ORP solution (high and low FAC ORP solutions, after 10 days): decreased significantly

O=C([O-])c1ccccc1-c1c2cc(Br)c(=O)c(Br)c-2oc2c(Br)c([O-])c(Br)cc12.[Na+].[Na+] [Eosine YS Acid Red 87 D&C red 22]
Colour / UV-vis stability of colorant in ORP solution (high concentration ORP (100 ppm FAC)): the red color disappeared quickly

O=C1OC2(c3ccccc31)c1cc(Br)c(O)c(Br)c1Oc1c2cc(Br)c(O)c1Br [Eosine Free Acid Solvent Red 43 D&C red 21]
Colour / UV-vis stability of colorant in ORP solution (low concentration ORP (30 ppm FAC)): the red color disappeared quickly

From patent publication US20150044144A1, “DISINFECTANT SOLUTION” (RAYMAT MATERIALS, INC., priority 2012, published 2015)
